Data taken from article PMC5818060 (Journal of Cell Science, 2018).

Tests used:
[1] = test system: endogenous CK1 / CK1 sensor in HEK293T cells; test: CK1 FRET biosensor, microplate reader FRET/CFP ratio; type: cell-based, human; conditions: HEK293T, CK1 sensor; D4476 0.4 or 2 µM in Fig. 1F-H, added 2-4 h prior to analysis; n=3
Procedure: HEK293T cells were seeded at a density of 20,000 cells/well on 96-well black microplates (PS, μClear, clear bottom, chimney well, Greiner No. 655090). Transfection was performed as described above. Unless indicated otherwise, the respective cell populations were transfected with 50-100 ng CK1 FRET biosensor, 100 ng regulator (i.e. N-Flag DDX3X) and 1-10 ng kinase (i.e. N-Flag CK1ε). Either empty pCS2 N-Flag vector or luciferase were used to transfect the same amount of DNA in every well. Generally, the different samples were run in triplicate for each individual experiment. Owing to the varying values for the FRET/CFP ratios based on transfection efficiency, cell density and the time point of analysis, we always set the FRET/CFP ratio of cells only transfected with the CK1 sensor to 1 in order to compare individual experiments. Importantly, the individual figures with the CK1 sensor represent only experiments performed on the same 96-well plate with the same cell density, transfection efficiency and time point.
Where applicable, the small-molecule CK1 inhibitor D4476 (BioVision) was added to the cells 2-4 h prior to the analysis. For each triplicate the respective volume of D4476 (in DMSO) was added together with 1 μl Fugene HD (Promega) to 60 μl serum-free medium. The solution was mixed, incubated for 15 min and added to the cells. […] In the corresponding controls an equal amount of DMSO instead of the inhibitor was added to the medium. Analysis was performed 48-60 h after transfection on an Infinite M1000 PRO microplate reader (Tecan) by exciting CFP with a wavelength of 433 nm and measuring the resulting emission at 460-600 nm in 2 nm increments. Fluorometric spectra were background subtracted with spectra recorded from wells with non-transfected cells. Resulting FRET/CFP ratios were calculated by dividing the intensity values at the respective peaks (478 nm for CFP, 528 nm for YFP) and analyzed essentially as described ([Fritz et al., 2013]). Where indicated, CK1δ/ε-derived peptides were transfected into cells using Metafectene (Biontex) 1 hour before measurements.

DDX3X = test: ATPase assay of DDX3X; type: biochemical, human; conditions: CK1ε pre-incubated with D4476; dsRNA-stimulated
Procedure: For the ATPase assay, Flag-tagged DDX3X full-length constructs were expressed in HEK293T cells. After purifying and eluting DDX3X from the beads, an aliquot of the eluates was resolved by SDS-PAGE in order to monitor the different DDX3X levels via western blotting and ImageJ. Based on this comparison, similar amounts of full-length DDX3X protein were used. Approximately 100 ng Flag-DDX3X protein and 10 ng His-CK1ε were used in a 60 μl reaction mix (reaction buffer: 20 mM Tris-HCl, pH 7.4, 200 mM NaCl, 0.5 mM DTT, 1 mM MgCl2, 1 mM ATP) with dsRNA (17 nM, 34 nM, 68 nM); the reaction was carried out at 37°C for 40 min. To phosphorylate DDX3X, 500 ng His-CK1εΔC or His-CK1εΔC^K38R were added in kinase buffer before eluting the DDX3X protein from the Sepharose magnetic Flag beads (Sigma). Incubation was performed at 37°C for 30 min. Then, beads were washed with 50 mM Tris-HCl, pH 7.5 and 500 mM NaCl before elution with Flag peptide. Termination of the helicase reaction was done with 10 μl of 50% TCA solution added to each reaction followed by centrifugation at 3000 g for 5 min at 4°C. Reaction mix was mixed with coloring solution (35 mM ammonium molybdate, 10 mM zinc acetate, 10% ascorbic acid, pH 5) in a 96-well plate before analysis using a spectrometer (wavelength 700 nm).

[2] = reason given for adding Fugene HD; ref Rena et al., 2004; cited from earlier work
Procedure: Where applicable, the small-molecule CK1 inhibitor D4476 (BioVision) was added to the cells 2-4 h prior to the analysis. For each triplicate the respective volume of D4476 (in DMSO) was added together with 1 μl Fugene HD (Promega) to 60 μl serum-free medium. The solution was mixed, incubated for 15 min and added to the cells. […] In the corresponding control ...

## NC(=O)c1ccc(-c2nc(-c3ccc4c(c3)OCCO4)c(-c3ccccn3)[nH]2)cc1 [D4476, reference compound]
[1]
  effect of CK1 inhibitor on FRET/CFP ratio of CK1 sensor: reduced as a result of the inhibitor treatment
DDX3X
  effect of CK1 inhibitor on CK1ε-mediated inhibition of DDX3X ATPase activity: prevented inhibition of the ATPase activity of DDX3X
[2]
  cell permeability: poor cell permeability
